Test results taken from US20240101531A1, “PYRIDINAMINE DERIVATIVES AND THEIR USE AS POTASSIUM CHANNEL MODULATORS” (Xenon Pharmaceuticals Inc., priority 2022, published 2024).
Where a name gives a salt, the structure may show the parent alone.

molecular target: human KV7.2/KV7.3 (Homo sapiens (Human), UniProt O43525+O43526); experiment: Potassium flux assay (IPG-2 AM dye); assay type: cell-based; conditions: TREX HEK 293 or HEK 293 cells expressing human KV7.2/KV7.3; arithmetic mean values
How it was run: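 EC50 from 16 concentrations (2-fold dilutions, top 30 μM), scaled between DMSO baseline and a known KV7.x modulator maximum. Signal is IPG-2 AM fluorescence (ex 530/em 558 nm) after 10 mM KCl challenge buffer addition, following 20 min room-temperature compound exposure of HEK 293 or TREX HEK 293 cells stably expressing human KV7.2/KV7.3.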

SMILES	EC50
Clc1ccc(Nc2nccc3cc(OCCC4COC4)ccc23)cn1 [Example 89, N-(6-chloropyridin-3-yl)-6-(2-(oxetan-3-yl)ethoxy)isoquinolin-1-amine]	< 1 µM
Clc1ccc(Nc2nccc3cc(OC4CCN(Cc5ccccc5)CC4)ccc23)cn1 [Example 90, 6-((1-benzylpiperidin-4-yl)oxy)-N-(6-chloropyridin-3-yl)isoquinolin-1-amine trifluoroacetate]	1 to 10 µM
CC(Oc1ccc2c(Nc3ccc(Cl)nc3)nccc2c1)C1(F)CC1 (centres unmarked) [Example 91, N-(6-chloropyridin-3-yl)-6-(1-(1-fluorocyclopropyl)ethoxy)isoquinolin-1-amine]	< 1 µM
C[Si](C)(C)CCOCN(c1ccc(Cl)nc1)c1nccc2cc(F)ccc12 [Example 92, N-(6-chloropyridin-3-yl)-6-fluoro-N-((2-(trimethylsilyl)ethoxy)-methyl)isoquinolin-1-amine]	1 to 10 µM
FC1(F)CCC(Oc2ccc3c(Nc4ccc(Cl)nc4)nccc3c2)CC1 [Example 93, N-(6-chloropyridin-3-yl)-6-((4,4-difluorocyclohexyl)oxy)isoquinolin-1-amine]	< 1 µM
Clc1ccc(Nc2nccc3cc(OCc4cnccn4)ccc23)cn1 [Example 94, N-(6-chloropyridin-3-yl)-6-(pyrazin-2-ylmethoxy)isoquinolin-1-amine]	10 to 30 µM
O[C@H]1C[C@H](Oc2ccc3c(Nc4ccc(Cl)nc4)nccc3c2)C1 [Example 96, (1r,3r)-3-((1-((6-chloropyridin-3-yl)amino)isoquinolin-6-yl)oxy)cyclobutan-1-ol]	1 to 10 µM
Clc1ccc(Nc2nccc3cc(OC4CC5CCC(C4)N5Cc4ccccc4)ccc23)cn1 (centres unmarked) [Example 97, 6-((8-benzyl-8-azabicyclo[3.2.1]octan-3-yl)oxy)-N-(6-chloropyridin-3-yl)isoquinolin-1-amine]	10 to 30 µM
CC1(CCOc2ccc3c(Nc4ccc(Cl)nc4)nccc3c2)COC1 [Example 98, N-(6-chloropyridin-3-yl)-6-(2-(3-methyloxetan-3-yl)ethoxy)isoquinolin-1-amine]	1 to 10 µM
Cn1cc(CCOc2ccc3c(Nc4ccc(Cl)nc4)nccc3c2)cn1 [Example 99, N-(6-chloropyridin-3-yl)-6-(2-(1-methyl-1H-pyrazol-4-yl)ethoxy)isoquinolin-1-amine]	1 to 10 µM
O[C@H]1CC[C@@H](Oc2ccc3c(Nc4ccc(Cl)nc4)nccc3c2)CC1 [Example 100, Cis-4-((1-((6-chloropyridin-3-yl)amino)isoquinolin-6-yl)oxy)cyclohexan-1-ol]	< 1 µM
CC(C)(COc1ccc2c(Nc3ccc(Cl)nc3)nccc2c1)N1CCOCC1 [Example 101, N-(6-chloropyridin-3-yl)-6-(2-methyl-2-morpholinopropoxy)isoquinolin-1-amine]	1 to 10 µM
CO[C@H]1CC[C@@H](Oc2ccc3c(Nc4ccc(Cl)nc4)nccc3c2)CC1 [Example 104, N-(6-chloropyridin-3-yl)-6-(((1s,4s)-4-methoxycyclohexyl)oxy)isoquinolin-1-amine]	10 to 30 µM
CO[C@H]1CC[C@H](Oc2ccc3c(Nc4ccc(Cl)nc4)nccc3c2)CC1 [Example 105, N-(6-chloropyridin-3-yl)-6-(((1r,4r)-4-methoxycyclohexyl)oxy)isoquinolin-1-amine]	10 to 30 µM
CC(Cc1cccnc1)Oc1ccc2c(Nc3ccc(Cl)nc3)nccc2c1 (centres unmarked) [Example 106, N-(6-chloropyridin-3-yl)-6-((1-(pyridin-3-yl)propan-2-yl)oxy)isoquinolin-1-amine]	1 to 10 µM
O=C1OCCN1CCOc1ccc2c(Nc3ccc(Cl)nc3)nccc2c1 [Example 107, 3-(2-((1-((6-chloropyridin-3-yl)amino)isoquinolin-6-yl)oxy)ethyl)oxazolidin-2-one]	1 to 10 µM
Clc1ccc(Nc2nccc3cc(O[C@@H]4CCCN(Cc5ccccc5)C4)ccc23)cn1 [Example 108, (R)-6-((1-benzylpiperidin-3-yl)oxy)-N-(6-chloropyridin-3-yl)isoquinolin-1-amine]	1 to 10 µM
CC(CN1CCOCC1)Oc1ccc2c(Nc3ccc(Cl)nc3)nccc2c1 (centres unmarked) [Example 109, N-(6-chloropyridin-3-yl)-6-((1-morpholinopropan-2-yl)oxy)isoquinolin-1-amine]	1 to 10 µM
CCOC(=O)C1(COc2ccc3c(Nc4ccc(Cl)nc4)nccc3c2)CC1 [Example 110, ethyl 1-(((1-((6-chloropyridin-3-yl)amino)isoquinolin-6-yl)oxy)methyl)cyclopropane-1-carboxylate]	1 to 10 µM
CC(=O)N1CC[C@H](Oc2ccc3c(Nc4ccc(Cl)nc4)nccc3c2)C1 [Example 111, (S)-1-(3-((1-((6-chloropyridin-3-yl)amino)isoquinolin-6-yl)oxy)pyrrolidin-1-yl)ethan-1-one]	1 to 10 µM
CC(=O)N1CC[C@@H](Oc2ccc3c(Nc4ccc(Cl)nc4)nccc3c2)C1 [Example 112, (R)-1-(3-((1-((6-chloropyridin-3-yl)amino)isoquinolin-6-yl)oxy)pyrrolidin-1-yl)ethan-1-one]	1 to 10 µM

SMILES	EC50
Clc1ccc(Nc2nccc3cc(OC4CC5(COC5)C4)ccc23)cn1 [Example 113, 6-((2-oxaspiro[3.3]heptan-6-yl)oxy)-N-(6-chloropyridin-3-yl)isoquinolin-1-amine]	< 1 µM
Clc1ccc(Nc2nccc3cc(OCC4CC5(CCO5)C4)ccc23)cn1 (centres unmarked) [Example 114, 6-((1-oxaspiro[3.3]heptan-6-yl)methoxy)-N-(6-chloropyridin-3-yl)isoquinolin-1-amine]	< 1 µM
Clc1ccc(Nc2nccc3cc(OCC45CCCN4CCC5)ccc23)cn1 [Example 115, N-(6-chloropyridin-3-yl)-6-((tetrahydro-1H-pyrrolizin-7a(5H)-yl)methoxy)isoquinolin-1-amine]	≥ 30 µM
FC1CN(CCOc2ccc3c(Nc4ccc(Cl)nc4)nccc3c2)C1 [Example 116, N-(6-chloropyridin-3-yl)-6-(2-(3-fluoroazetidin-1-yl)ethoxy)isoquinolin-1-amine]	1 to 10 µM
Clc1ccc(Nc2nccc3cc(OCc4cnn(C5COC5)c4)ccc23)cn1 [Example 117, N-(6-chloropyridin-3-yl)-6-((1-(oxetan-3-yl)-1H-pyrazol-4-yl)methoxy)isoquinolin-1-amine]	< 1 µM
CS(=O)(=O)N1CCC(Oc2ccc3c(Nc4ccc(Cl)nc4)nccc3c2)CC1 [Example 118, N-(6-chloropyridin-3-yl)-6-((1-(methylsulfonyl)piperidin-4-yl)oxy)isoquinolin-1-amine]	1 to 10 µM
COCCN1CCC(Oc2ccc3c(Nc4ccc(Cl)nc4)nccc3c2)CC1 [Example 119, N-(6-chloropyridin-3-yl)-6-((1-(2-methoxyethyl)piperidin-4-yl)oxy)isoquinolin-1-amine]	10 to 30 µM
Clc1ccc(Nc2nccc3cc(OCCn4cccn4)ccc23)cn1 [Example 120, 6-(2-(1H-pyrazol-1-yl)ethoxy)-N-(6-chloropyridin-3-yl)isoquinolin-1-amine]	10 to 30 µM
O=C(C1CC1)N1CCC(Oc2ccc3c(Nc4ccc(Cl)nc4)nccc3c2)CC1 [Example 121, (4-((1-((6-chloropyridin-3-yl)amino)isoquinolin-6-yl)oxy)piperidin-1-yl)(cyclopropyl)methanone]	1 to 10 µM
CC(=O)N1CCC[C@H](Oc2ccc3c(Nc4ccc(Cl)nc4)nccc3c2)C1 [Example 122, (S)-1-(3-((1-((6-chloropyridin-3-yl)amino)isoquinolin-6-yl)oxy)piperidin-1-yl)ethan-1-one]	1 to 10 µM
CC(=O)N1CCC[C@@H](Oc2ccc3c(Nc4ccc(Cl)nc4)nccc3c2)C1 [Example 123, (R)-1-(3-((1-((6-chloropyridin-3-yl)amino)isoquinolin-6-yl)oxy)piperidin-1-yl)ethan-1-one]	< 1 µM
Cc1ncc(Nc2nccc3cc(OCC4(C#N)CC4)ccc23)cn1 [Example 127, 1-(((1-((2-methylpyrimidin-5-yl)amino)isoquinolin-6-yl)oxy)methyl)cyclopropane-1-carbonitrile]	< 1 µM
CN1CC(F)(COc2ccc3c(Nc4ccc(Cl)nc4)nccc3c2)C1 [Example 128, N-(6-chloropyridin-3-yl)-6-((3-fluoro-1-methylazetidin-3-yl)methoxy)isoquinolin-1-amine]	10 to 30 µM
OCc1ncc(Nc2nccc3cc(OCC4(F)CC4)ccc23)cn1 [Example 129, (5-((6-((1-fluorocyclopropyl)methoxy)isoquinolin-1-yl)amino)pyrimidin-2-yl)methanol]	1 to 10 µM
CC[C@@H](OC)c1ccc2c(Nc3ccc(Cl)nc3)nccc2c1 [Example 130, (R)—N-(6-chloropyridin-3-yl)-6-(1-methoxypropyl)isoquinolin-1-amine]	10 to 30 µM
CC[C@H](OC)c1ccc2c(Nc3ccc(Cl)nc3)nccc2c1 [Example 131, (S)—N-(6-chloropyridin-3-yl)-6-(1-methoxypropyl)isoquinolin-1-amine]	≥ 30 µM
CO[C@H](C)c1ccc2c(Nc3ccc(Cl)nc3)nccc2c1 [Example 132, (R)-N-(6-chloropyridin-3-yl)-6-(1-methoxyethyl)isoquinolin-1-amine]	10 to 30 µM
CO[C@@H](C)c1ccc2c(Nc3ccc(Cl)nc3)nccc2c1 [Example 133, (S)-N-(6-chloropyridin-3-yl)-6-(1-methoxyethyl)isoquinolin-1-amine]	10 to 30 µM
N#CCC1(COc2ccc3c(Nc4ccc(Cl)nc4)nccc3c2)COC1 [Example 134, 2-(3-(((1-((6-chloropyridin-3-yl)amino)isoquinolin-6-yl)oxy)methyl)oxetan-3-yl)acetonitrile]	< 1 µM
Clc1ccc(Nc2nccc3cc(O[C@H]4CCC5(COC5)C4)ccc23)cn1 [Example 135, (S)-6-((2-oxaspiro[3.4]octan-6-yl)oxy)-N-(6-chloropyridin-3-yl)isoquinolin-1-amine]	< 1 µM
